Assays:
[1] = tested on: site of ischemic disorder in the brain; assay: PET analysis of rat cerebral infarction (PIT) model with blocked middle cerebral artery; assay type: in vivo; details: for accumulation of probe in site of ischemic disorder: Normal, Day-1, Day-7, PET 60 minutes
Method: The rat was subjected to anesthesia induction using 4% halothane (30% O2, 70% room air), and during the surgery, the halothane concentration was maintained at 1.5% to 2%. The skin was incised along the left eye cavity margin under a surgical microscope, and an elliptical window (hole) having a size of about 3 mm was cut open in the lower cranium using a dental drill so that the left middle cerebral artery could be seen under the dura mater. Photosensitizer Rose Bengal (20 mg/kg) was administered through the tail vein of the rat, the middle cerebral artery was irradiated with green light having a wavelength of 540 nm for 10 minutes, and thus cerebral infarction was developed in the rat.
In the respective rats before the onset of cerebral infarction (Normal), 1 day after the onset of cerebral infarction (Day-1), and 7 days after the onset of cerebral infarction (Day-7), glucose metabolism (using [^18F]FDG as a probe) and the activity of mitochondrial Complex-1 (using [^18F]BMS or [^18F]BCPP-EF as a probe) in the sites of ischemic disorder in the brain were monitored by the PET method. Specifically, each of the probes was bolus administered in an amount of 6 to 8 MBq/animal through the tail vein of the rat, and the analysis was carried out for 60 minutes. During the analysis, the rat was inactivated by continuously administering chloral hydrate (100 mg/kg/hr) through the tail vein of the rat.

mitochondrial Complex-1 [2] = assay: PET analysis of rotenone-administered rat (brain and heart); assay type: in vivo; details: rat cerebellum, cerebral cortex, corpus striatum and heart; rotenone 0.1 mg/kg/h i.v.; FIGS. 5 and 6
Method: A rat was anesthetized with chloral hydrate (400 mg/kg; I.P.) and was immobilized on a bed for measurement. Immediately thereafter, rotenone (0.1 mg/kg/h) or a vehicle was administered through the tail vein of the rat. In order to identify the position of the brain during the administration, an analysis was carried out using Clairvivo-CT (Shimadzu Corp.). Thereafter, the bed for measurement was moved to Clairvivo PET. After the administration of rotenone (0.1 mg/kg/h) or the vehicle was completed, [^18F]BMS or [^18F]BCPP-EF was immediately bolus administered in an amount of about 8 MBq/animal through the tail vein of the rat, and the measurement was carried out for 60 minutes. During the measurement, chloral hydrate (100 mg/kg/hr) was continuously administered through the tail vein of the rat, and thereby the rat was inactivated.

mitochondrial Complex-1 [3] = assay: PET analysis of intracerebral activity of mitochondrial Complex-1 in young and aged monkey; assay type: in vivo; details: young monkey (5 years old) versus aged monkey (22 years old), FIG. 10
Method: (§1) Cephalic vein or saphenous vein was secured as the route of intravenous administration to the test animal, and femoral artery or posterior tibial artery was secured as the route for collecting arterial blood. First, the amount of radioactivity of [^18F]BMS, [^18F]BCPP-EF or [^11C]BCPP-EM was measured. As radioactive agents, [^18F]BMS and [^18F]BCPP-EF were administered through an indwelling needle indwelled in a test animal in an amount of administration of 300 to 500 MBq, and [^11C]BCPP-EM was administered in an amount of administration of 800 to 1200 MBq, such that the entire amount of the radioactive agent was intravenously administered over about 30 seconds. Simultaneously with the initiation of administration of the radioactive agent, measurement of emission (6 frames of 10 seconds, 6 frames of 30 seconds, 12 frames of 1 minute, 25 frames of 3 minutes, and 6 frames of 5 minutes; 55 frames for 121 minutes in total) was initiated.
The results of a PET analysis obtained from a young monkey (5 years old) and an aged monkey (22 years old) are presented in FIG. 10. [^18F]BCPP-EF was used as the PET probe.

mitochondrial Complex-1 [4] = assay: PET analysis of intracerebral activity of mitochondrial Complex-1 in Parkinson's disease model monkey; assay type: in vivo, Macaca fascicularis; details: Parkinson's disease (MPTP) model monkey versus normal monkey, FIG. 11
Method: as §1, with “Simultaneously with the initiation of administration of the radioactive agent, measurement of emission (6 frames of 10 seconds, 6 frames of 30 seconds, 12 frames of 1 minute, 25 frames of 3 minutes, and 6 frames of 5 minutes; 55 frames for 121 minutes in total) was initiated.” left out
A comparison of the intracerebral activity of mitochondrial Complex-1 was made between a normal monkey and a Parkinson's disease model monkey by a PET analysis. […] The degree of motility disturbance in the limbs was evaluated by observing the way that the Macaca fascicularis monkey picked up the feed, and also, by measuring the decrease in the sites of dopamine reabsorption using a PET analysis, it was finally confirmed that the Macaca fascicularis monkey had the condition of Parkinson's disease.

mitochondrial Complex-1 [5] = assay: PET experiment on inhibition of binding to mitochondrial Complex-1 by rotenone administration in monkey brain; assay type: in vivo; details: compared with [18F]BMS
Method: as §1
In the experiment on the inhibition of PET probe binding by rotenone administration in the brain of a monkey, rotenone was administered to the test animal by intravenous injection in an amount of 0.1 mg/kg/hr. Subsequently, [^18F]BMS, [^18F]BCPP-EF or [^11C]BCPP-EM was administered as a probe, and a PET analysis was carried out.

mitochondrial Complex-1 [6] = assay: Autoradiography using living rat brain slices, inhibition of probe binding by rotenone; details: for binding inhibitory effect by rotenone on probe binding: rotenone 2-20000 nM, probe 1 MBq/ml, FIGS. 3 and 4
Method: A rat was anesthetized with chloral hydrate (400 mg/kg; I.P.) and decapitated. Thereafter, the brain was immediately sampled and cooled sufficiently, and the cooled brain was immersed in ACSF (artificial cerebrospinal fluid) in a sherbet state. A necessary block of the obtained brain was cut and adhered to a fixing platform of a vibration microtome HM650V (Thermo Fisher Scientific, Inc., Waltham, USA). Thereafter, brain slices having a thickness of 300 μm were produced. The cut brain slices were immersed in 24 ml of ACSF for 30 minutes under bubbling with O2, and thus the activities of cells were calmed. Thereafter, 20 μL of Vehicle or Rotenone (adjusted to concentrations of 2 nM, 20 nM, 200 nM, and 20000 nM in respective beakers) was added to ACSF, and the mixture was bubbled for 30 minutes. Furthermore, 1 MBq/ml of [^18F]BMS or [^18F]BCPP-EF was added to the ACSF, and bubbling was continued for 30 minutes. After completion of the bubbling, the brain slices were taken out and transferred to 100 ml of fresh ACSF. Subsequently, excess RI was washed away by bubbling the ACSF for another 30 minutes. Thereafter, the brain slices were arranged in a row on an OHP sheet, and an image thereof was captured with a scanner (Epson: GT-600). Subsequently, the OHP sheet having the brain slices arranged in a row thereon was placed on an imaging plate (ST-VI, Fujifilm Corp., Tokyo) having sensitivity to radiation, and the OHP sheet was left to stand for about one hour in the dark (contact). The imaging plate was subjected to detection with a Fluoro Image Analyzer, FLA-7000 (Fujifilm Corp., Tokyo).

mitochondrial Complex-1 [7] = assay: In vitro autoradiography of rat brain slices and in vivo PET of living rat brain (background evaluation of [18F]BMS)
Text: On the other hand, it has been reported that [^18F]BMS-747158-02 (2-tert-butyl-4-chloro-5-[4-(2-fluoroethoxymethyl)-benzyloxy]-2H-pyridazin-3-one, [^18F]BMS) serves as a PET probe that recognizes mitochondrial Complex-1 (hereinafter, may be referred to as “MC-1”), and this compound is used in a functional evaluation of the brain or the heart (Patent Literature 1 and Non-Patent Literature 1).

Oil-solubility (log P) = assay type: physicochemical

## CC(C)(C)n1ncc(OCc2ccc(OCCOCC[18F])nc2)c(Cl)c1=O [[^18F]BCPP-EF]
[1]; rat PIT model, FIG. 7
  accumulation of probe in site of ischemic disorder: no accumulation of the probe was observed in the site of ischemic disorder
[1]; rat PIT model, compared with [18F]BMS, FIG. 7
  degree of accumulation of probe, site of ischemic disorder versus normal site: clearly different between a site of ischemic disorder and a normal site
Mitochondrial Complex-1 [2]
  uptake quantity of probe after administration of rotenone: further reduced by the administration of rotenone than that of [^18F]BMS
Mitochondrial Complex-1 [3]
  amount of PET probe accumulated in the brain: a larger amount of the PET probe was accumulated in the brain in the young monkey than in the aged monkey
Mitochondrial Complex-1 [4]
  amount of PET probe accumulating in the brain: smaller in the Parkinson's disease model monkey, compared with the normal monkey
Mitochondrial Complex-1 [5]
  specificity to mitochondrial Complex-1: higher specificity to mitochondrial Complex-1 than [^18F]BMS
Mitochondrial Complex-1 [5]; rotenone 0.1 mg/kg/hr i.v., FIGS. 8 and 9
  binding inhibitory effect of rotenone on probe binding: more likely to be affected by the binding inhibitory effect of rotenone
Mitochondrial Complex-1 [6]; compared with [18F]BMS
  specificity to mitochondrial Complex-1: higher specificity to mitochondrial Complex-1 than [^18F]BMS
Mitochondrial Complex-1 [6]
  binding inhibitory effect by rotenone on probe binding: more likely to be affected by the binding inhibitory effect by rotenone than [^18F]BMS

## CC(C)(C)n1ncc(OCc2ccc(OCCCC[18F])nc2)c(Cl)c1=O [[^18F]BCPP-BF]
Mitochondrial Complex-1 [6]
  binding inhibitory effect by rotenone on probe binding: affected by the binding inhibitory effect of rotenone

## CC(C)(C)n1ncc(OCc2ccc(COCCF)cc2)c(Cl)c1=O [[^18F]BMS, 2-tert-butyl-4-chloro-5-[4-(2-fluoroethoxymethyl)-benzyloxy]-2H-pyridazin-3-one]
[1]; rat PIT model, FIG. 7
  accumulation of probe in site of ischemic disorder: no accumulation of the probe was observed in the site of ischemic disorder
Mitochondrial Complex-1 [7]; rat brain
  non-specific binding capacity: high non-specific binding capacity
Mitochondrial Complex-1 [7]; rotenone, inhibitory drug specific to Complex-1
  inhibitory effect in inhibition experiment using rotenone: an inhibitory effect cannot be sufficiently checked
Oil-solubility (log P)
  logP: 1.42

## OC[C@H]1OC(O)[C@H]([18F])[C@@H](O)[C@@H]1O (stereo partly shown) [[^18F]FDG, ^18F-fluorodeoxyglucose]
[1]; cerebral infarction model rat, PET, background statement
  accumulation of probe in site of ischemic injury of the brain: accumulation of [^18F]FDG is increased
[1]; rat PIT model, FIG. 7
  accumulation of probe in site of ischemic disorder: accumulation of [^18F]FDG increased in the site of ischemic disorder
